How the values were obtained:
Format in all cases: in vivo
Senecio vulgaris = assay: Example 3 post-emergence field trial, SENVU; conditions: height 25-30 cm, 7 DAT
Protocol: (§1) In the examples below, using the method of S. R. Colby (1967) “Calculating synergistic and antagonistic responses of herbicide combinations”, Weeds 15, p. 22ff., the value E, which is expected if the activity of the individual active compounds is only additive, was calculated: [formula] • where • X=percent activity using active herbicide A at an application rate a; • Y=percent activity using active herbicide B (e.g. mesotrione) at an application rate b; • E=expected activity (in %) by A+B at application rates a+b. If the value found experimentally is higher than the value E calculated according to Colby, a synergistic effect is present. Evaluation was carried out using a scale from 0 to 100. 100 means no emergence of the plants, or complete destruction of at least the above-ground parts, and 0 means no damage or normal course of growth. A good herbicidal activity is given at values of at least 70, and very good herbicidal activity is given at values of at least 85. Post-Emergence Application of Herbicide A-1 (A-1) and Mesotrione (B) in Field Trials Herbicide A-1 (342 g/l) and mesotrione (100 g/l) were, together with addition of 0.5 v/v % MSO (methylated sed oil) as adjuvant, formulated in water as distribution medium (water volume 200 l/ha) and sprayed with commercial flat fan nozzles.

Erigeron canadensis = assay: Example 1 post-emergence greenhouse trial, ERICA; conditions: growth stage 18, 21 DAT
Protocol: (§2) In the examples below, using the method of S. R. Colby (1967) “Calculating synergistic and antagonistic responses of herbicide combinations”, Weeds 15, p. 22ff., the value E, which is expected if the activity of the individual active compounds is only additive, was calculated: [formula] • where • X=percent activity using active herbicide A at an application rate a; • Y=percent activity using active herbicide B (e.g. mesotrione) at an application rate b; • E=expected activity (in %) by A+B at application rates a+b. If the value found experimentally is higher than the value E calculated according to Colby, a synergistic effect is present. The culture containers used were plastic pots containing loamy sand with approximately 3.0% of humus as substrate. The seeds of the test plants were sown separately for each species. For the post-emergence treatment, the test plants were grown to a plant height of from 3 to 15 cm, depending on the plant habit, and only then treated with the active compounds which had been suspended or emulsified in water. To this end, the test plants were either sown directly, and grown in the same containers, or they were first grown separately as seedlings and transplanted into the test containers a few days prior to treatment. Depending on the species, the plants were kept at 10-25° C. and 20-35° C., respectively. The test period extended over 2 to 4 weeks. During this time, the plants were tended and their response to the individual treatments was evaluated. Evaluation was carried out using a scale from 0 to 100. 100 means no emergence of the plants, or complete destruction of at least the above-ground parts, and 0 means no damage or normal course of growth. A good herbicidal activity is given at values of at least 70, and very good herbicidal activity is given at values of at least 85. Post-Emergence Application of Herbicide A-1 (A-1) and Mesotrione (B) in Greenhouse Trials Herbicide A-1 (50 g/l) and mesotrione (480 g/l) were, together with addition of 1 v/v % MSO (methylated sed oil) as adjuvant, formulated in water as distribution medium (water volume 200 l/ha) and sprayed with commercial flat fan nozzles.

Echinochloa crus-galli [1] = assay: Example 3 post-emergence field trial, ECHCG; conditions: height 15-20 cm
Protocol: as §1

Avena fatua = assay: Example 2 post-emergence greenhouse trial, AVEFA
Protocol: (§3) In the examples below, using the method of S. R. Colby (1967) “Calculating synergistic and antagonistic responses of herbicide combinations”, Weeds 15, p. 22ff., the value E, which is expected if the activity of the individual active compounds is only additive, was calculated: [formula] • where • X=percent activity using active herbicide A at an application rate a; • Y=percent activity using active herbicide B (e.g. mesotrione) at an application rate b; • E=expected activity (in %) by A+B at application rates a+b. If the value found experimentally is higher than the value E calculated according to Colby, a synergistic effect is present. The culture containers used were plastic pots containing loamy sand with approximately 3.0% of humus as substrate. The seeds of the test plants were sown separately for each species. For the post-emergence treatment, the test plants were grown to a plant height of from 3 to 15 cm, depending on the plant habit, and only then treated with the active compounds which had been suspended or emulsified in water. To this end, the test plants were either sown directly, and grown in the same containers, or they were first grown separately as seedlings and transplanted into the test containers a few days prior to treatment. Depending on the species, the plants were kept at 10-25° C. and 20-35° C., respectively. The test period extended over 2 to 4 weeks. During this time, the plants were tended and their response to the individual treatments was evaluated. Evaluation was carried out using a scale from 0 to 100. 100 means no emergence of the plants, or complete destruction of at least the above-ground parts, and 0 means no damage or normal course of growth. A good herbicidal activity is given at values of at least 70, and very good herbicidal activity is given at values of at least 85. Post-Emergence Application of Herbicide A-1 (A-1) and Mesotrione (B) in Greenhouse Trials Herbicide A-1 (342 g/l) and mesotrione (480 g/l) were, together with addition of 0.5 v/v % MSO (methylated sed oil) as adjuvant, formulated in water as distribution medium (water volume 200 l/ha) and sprayed with commercial flat fan nozzles.

Digitaria sanguinalis = assay: Example 2 post-emergence greenhouse trial, DIGSA; conditions: growth stage 12, 7 DAT
Protocol: as §3

Setaria verticillata = assay: Example 3 post-emergence field trial, SETVE; conditions: height 8-16 cm; for % herbicidal activity A-1 / % herbicidal activity B: 42 DAT; for % herbicidal activity: g ai/ha: A-1 18, B 105
Protocol: as §1

Echinochloa crus-galli [2] = assay: Example 1 post-emergence greenhouse trial, ECHCG; conditions: growth stage 14, 21 DAT
Protocol: as §2

[3] = 7 DAT, g ai/ha: A-1 12.5, B 105
[4] = 7 DAT, g ai/ha: A-1 12.5, B 210
[5] = 21 DAT, g ai/ha: A-1 12.5, B 105
[6] = 28 DAT, g ai/ha: A-1 12.5, B 105
[7] = growth stage 11, 7 DAT, g ai/ha: A-1 1, B 50
[8] = growth stage 11, 20 DAT, g ai/ha: A-1 1, B 50
[9] = growth stage 11, 20 DAT, g ai/ha: A-1 1, B 100

Structure (SMILES)	% herbicidal activity (Senecio vulgaris; g ai/ha: A-1 12.5, B 210) [%]	% herbicidal activity (Senecio vulgaris; g ai/ha: A-1 18, B 210) [%]	% herbicidal activity (Erigeron canadensis; g ai/ha: A-1 0.5, B 62.5) [%]	% herbicidal activity (Erigeron canadensis; g ai/ha: A-1 1, B 62.5) [%]	% herbicidal activity (Echinochloa crus-galli [1]; [3]) [%]	% herbicidal activity (Echinochloa crus-galli [1]; [4]) [%]	% herbicidal activity (Echinochloa crus-galli [1]; 7 DAT, g ai/ha: A-1 18, B 105) [%]	% herbicidal activity (Echinochloa crus-galli [1]; 7 DAT, g ai/ha: A-1 18, B 210) [%]	% herbicidal activity (Echinochloa crus-galli [1]; [5]) [%]	% herbicidal activity (Echinochloa crus-galli [1]; 21 DAT, g ai/ha: A-1 18, B 105) [%]	% herbicidal activity (Echinochloa crus-galli [1]; [6]) [%]	% herbicidal activity (Echinochloa crus-galli [1]; 28 DAT, g ai/ha: A-1 18, B 105) [%]	% herbicidal activity (Avena fatua; [7]) [%]	% herbicidal activity (Avena fatua; [8]) [%]	% herbicidal activity (Avena fatua; [9]) [%]	% herbicidal activity (Digitaria sanguinalis; g ai/ha: A-1 0.25, B 50) [%]	% herbicidal activity (Digitaria sanguinalis; g ai/ha: A-1 0.25, B 100) [%]	% herbicidal activity (Digitaria sanguinalis; g ai/ha: A-1 0.5, B 50) [%]	% herbicidal activity (Setaria verticillata; 7 DAT) [%]	% herbicidal activity (Setaria verticillata; 21 DAT) [%]	also measured
CCOC(=O)COc1ccccc1Oc1nc(-n2c(=O)cc(C(F)(F)F)n(C)c2=O)c(F)cc1Cl [A-1, ethyl 2-[2-[[3-chloro-5-fluoro-6-[3-methyl-2,6-dioxo-4-(trifluoromethyl)pyrimidin-1-yl]-2-pyridyl]oxy]phenoxy]acetate]	85	88	60	80	30	20	30	30	30	30	20	30	70	35	35	30	30	80	80	75	% herbicidal activity A-1 (Setaria verticillata; A-1 12.5 g ai/ha (row with B 105)): 60%; % herbicidal activity A-1 (Setaria verticillata; A-1 12.5 g ai/ha (row with B 210)): 50%; % herbicidal activity (Echinochloa crus-galli [2]; g ai/ha: A-1 1, B 62.5): 90%; % herbicidal activity (Echinochloa crus-galli [2]; g ai/ha: A-1 4, B 62.5): 90%
CS(=O)(=O)c1ccc(C(=O)C2C(=O)CCCC2=O)c([N+](=O)[O-])c1 [B, mesotrione]	40	40	65	65	50	50	50	50	60	60	50	50	15	15	15	70	80	70	50	35	% herbicidal activity B (Setaria verticillata; B 105 g ai/ha): 30%; % herbicidal activity B (Setaria verticillata; B 210 g ai/ha): 20%; % herbicidal activity (Echinochloa crus-galli [2]; g ai/ha: A-1 1, B 62.5): 65%; % herbicidal activity (Echinochloa crus-galli [2]; g ai/ha: A-1 4, B 62.5): 65%
